Data reported in ChEMBL document CHEMBL1141730, “Destruxin-A4 chlorohydrin, a novel destruxin from fungus OS-F68576: isolation, structure determination, and biological activity as an inducer of erythropoietin” (1998).
Starred links: 1 amine or outer side, 2 acyl side, 3 side chain; linkers in the order of their positions; H or OH if unused. Non-standard residues stand in square brackets, D forms with d. Residues, ends and D or L forms follow the SMILES beside them. Pentanoyl(2-O,4-OH,5-Cl) = O=C(O)C(O)CC(O)CCl; dLac(3-vinyl) = C=CC[C@@H](O)C(=O)O; NMeI = CC[C@H](C)[C@H](NC)C(=O)O; X1 = C=CC[C@H](O[*:1])C(=O)[*:2]; Hica(2S) = CC(C)C[C@H](O)C(=O)O; dHica = CC(C)C[C@@H](O)C(=O)O; NMeV = CN[C@H](C(=O)O)C(C)C; NMeA = CN[C@@H](C)C(=O)O; βAla = NCCC(=O)O

Key:
Hep 3B2 [1] = assay: Induction of erythropoietin gene expression in human Hep3B cells over expressing human EPO assessed as maximal transcription induction ratio at 20 uM by luciferase reporter gene assay; format: functional
Hep 3B2 [2] = assay: Induction of erythropoietin secretion in human Hep3B cells expressing human EPO at 10 uM by ELISA; format: functional
Hep 3B2 [3] = assay: Induction of erythropoietin gene expression in human Hep3B cells over expressing human EPO assessed as maximal transcription induction ratio at 1.3 uM by luciferase reporter gene assay; format: functional
Hep 3B2 [4] = assay: Induction of erythropoietin gene expression in human Hep3B cells over expressing human EPO assessed as drug level required to produce 5 fold transcription induction ratio; format: functional
Hep 3B2 [5] = assay: Cytotoxicity against human Hep3B cells at =< 20 uM; format: functional, cell-based
Hep 3B2 [6] = assay: Induction of erythropoietin gene expression in human Hep3B cells over expressing human EPO assessed as maximal transcription induction ratio at 10 uM by luciferase reporter gene assay; format: functional
Hep 3B2 [7] = assay: Induction of erythropoietin gene expression in human Hep3B cells over expressing human EPO assessed as maximal transcription induction ratio at 2.1 uM by luciferase reporter gene assay; format: functional
Hep 3B2 [8] = assay: Induction of erythropoietin gene expression in human Hep3B cells over expressing human EPO assessed as maximal transcription induction ratio at 5 uM by luciferase reporter gene assay; format: functional

CC[C@H](C)[C@H](NC(=O)[C@@H]1CCCN1C(O)CC(O)CCl)C(=O)N(C)[C@H](C(=O)N(C)[C@@H](C)C(=O)NCCC(=O)O)[C@@H](C)CC (stereo partly specified)
Ratio (Hep 3B2 [1]): 1

CC[C@H](C)[C@@H]1NC(=O)[C@@H]2CCCN2C(=O)C(CC(O)CCl)OC(=O)CCNC(=O)[C@H](C)N(C)C(=O)[C@H]([C@@H](C)CC)N(C)C1=O (stereo partly specified) (cyclo(I[NMeI][NMeA][βAla][Pentanoyl(2-O,4-OH,5-Cl)]P))
Activity (Hep 3B2 [2]): 36 mU/ml | Ratio (Hep 3B2 [3]): 28 | Activity (Hep 3B2 [4]): 0.2 µM | Activity (Hep 3B2 [5]): Not toxic

CC[C@H](C)[C@@H]1NC(=O)[C@@H]2CCCN2C(=O)[C@@H](CC(C)C)OC(=O)CCNC(=O)[C@H](C)N(C)C(=O)[C@H](C(C)C)N(C)C1=O (cyclo(I[NMeV][NMeA][βAla][dHica]P))
Activity (Hep 3B2 [2]): 35 mU/ml | Activity (Hep 3B2 [4]): 2 µM | Activity (Hep 3B2 [5]): Not toxic | Ratio (Hep 3B2 [6]): 19

C=CC[C@H]1OC(=O)CCNC(=O)[C@H](C)N(C)C(=O)[C@H](C(C)C)N(C)C(=O)[C@H]([C@@H](C)CC)NC(=O)[C@@H]2CCCN2C1=O (cyclo(I[NMeV][NMeA][βAla][dLac(3-vinyl)]P))
Activity (Hep 3B2 [2]): 37 mU/ml | Activity (Hep 3B2 [4]): 0.4 µM | Activity (Hep 3B2 [5]): Not toxic | Ratio (Hep 3B2 [7]): 28

C=CC[C@@H]1OC(=O)CCNC(=O)[C@H](C)N(C)C(=O)[C@H]([C@@H](C)CC)N(C)C(=O)[C@H]([C@@H](C)CC)NC(=O)[C@@H]2CCCN2C1=O [destruxin A4] (cyclo(I[NMeI][NMeA][βAla][X1]P))
Activity (Hep 3B2 [2]): 35 mU/ml | Activity (Hep 3B2 [4]): 0.9 µM | Ratio (Hep 3B2 [8]): 23 | Activity (Hep 3B2 [5]): Not toxic

CC[C@H](C)[C@@H]1NC(=O)[C@@H]2CCCN2C(=O)[C@H](CC(C)C)OC(=O)CCNC(=O)[C@H](C)N(C)C(=O)[C@H]([C@@H](C)CC)N(C)C1=O [homodestruxin B] (cyclo([Hica(2S)]PI[NMeI][NMeA][βAla]))
Activity (Hep 3B2 [2]): 36 mU/ml | Activity (Hep 3B2 [4]): 0.8 µM | Ratio (Hep 3B2 [8]): 18 | Activity (Hep 3B2 [5]): Not toxic
